# Tested on: MV-4-11 cells
# Experiment: Gene expression microarray analysis (Affymetrix PrimeView) and GSEA
# Assay type: cell-based, human
# Design: RFU PODN (11730768_x_at) / Fold change /veh PODN (11730768_x_at) / RFU LINC00158 (11744669_a_at) / Fold change /veh LINC00158 (11744669_a_at) / RFU DUSP10 (11751237_a_at) / Fold change /veh DUSP10 (11751237_a_at) / RFU ID3 (11757404_x_at) / Fold change /veh ID3 (11757404_x_at) / RFU PLEKHG5 (11737974_s_at) / Fold change /veh PLEKHG5 (11737974_s_at) / RFU LRRC4B (11730491_at) / Fold change /veh LRRC4B (11730491_at) / RFU GIMAP4 (11747438_a_at) / Fold change /veh GIMAP4 (11747438_a_at) / RFU KRT8 (11758183_x_at) / Fold change /veh KRT8 (11758183_x_at) / RFU CNN1 (11734310_a_at) / Fold change /veh CNN1 (11734310_a_at) / RFU VPS37D (11726825_at) / Fold change /veh VPS37D (11726825_at) / RFU C10orf10 (11716522_x_at) / Fold change /veh C10orf10 (11716522_x_at) / RFU KIR2DL2 /// KIR2DL4 /// KIR2DL5A /// KIR2DL5B /// KIR2DS1 /// KIR2DS2 /// KIR2DS3 /// KIR2DS4 /// KIR3DL3 /// KIR3DL3 /// KIR3DS1 (11738374_at) / Fold change /veh KIR2DL2 /// KIR2DL4 /// KIR2DL5A /// KIR2DL5B /// KIR2DS1 /// KIR2DS2 /// KIR2DS3 /// KIR2DS4 /// KIR3DL3 /// KIR3DL3 /// KIR3DS1 (11738374_at) / RFU C1QL1 (11718748_at) / Fold change /veh C1QL1 (11718748_at) / RFU TMPRSS4 (11747572_a_at) / Fold change /veh TMPRSS4 (11747572_a_at) / RFU HAMP (11756126_x_at) / Fold change /veh HAMP (11756126_x_at) / RFU RNFT2 (11725882_a_at) / Fold change /veh RNFT2 (11725882_a_at) / RFU NR4A2 (11747474_a_at) / Fold change /veh NR4A2 (11747474_a_at) / RFU ABCC12 (11746883_a_at) / Fold change /veh ABCC12 (11746883_a_at) / RFU TMEM136 (11760407_x_at) / Fold change /veh TMEM136 (11760407_x_at) / RFU CLDN22 /// WWC2 (11732394_at) / Fold change /veh CLDN22 /// WWC2 (11732394_at) / RFU HLA-DPB1 (11760878_x_at) / Fold change /veh HLA-DPB1 (11760878_x_at) / RFU SPINT1 (11716480_a_at) / Fold change /veh SPINT1 (11716480_a_at) / RFU GAP43 (11754022_s_at) / Fold change /veh GAP43 (11754022_s_at) / RFU A4GNT (11735810_at) / Fold change /veh A4GNT (11735810_at) / RFU PRB3 (11715151_x_at) / Fold change /veh PRB3 (11715151_x_at) / RFU TUBB4B (11761932_at) / Fold change /veh TUBB4B (11761932_at) / RFU CAPN14 (11732068_a_at) / Fold change /veh CAPN14 (11732068_a_at) / RFU TMCC2 (11721928_a_at) / Fold change /veh TMCC2 (11721928_a_at) / RFU IRGQ (11745062_a_at) / Fold change /veh IRGQ (11745062_a_at) / RFU FAM174B (11720279_a_at) / Fold change /veh FAM174B (11720279_a_at) / RFU TMPRSS4 (11748680_a_at) / Fold change /veh TMPRSS4 (11748680_a_at) / RFU FAM212B (11763350_a_at) / Fold change /veh FAM212B (11763350_a_at) / RFU PLEKHG5 (11743358_a_at) / Fold change /veh PLEKHG5 (11743358_a_at) / RFU ZSCAN30 (11745921_a_at) / Fold change /veh ZSCAN30 (11745921_a_at) / RFU CMKLR1 (11741424_a_at) / Fold change /veh CMKLR1 (11741424_a_at) / RFU LOC101060620 /// MAPK8IP1 (11723275_at) / Fold change /veh LOC101060620 /// MAPK8IP1 (11723275_at) / RFU SPTSSB (11747773_x_at) / Fold change /veh SPTSSB (11747773_x_at) / RFU PRSS12 (11739890_at) / Fold change /veh PRSS12 (11739890_at) / RFU BIN1 (11741810_x_at) / Fold change /veh BIN1 (11741810_x_at) / RFU WNT11 (11732464_a_at) / Fold change /veh WNT11 (11732464_a_at) / RFU C10orf10 (11716521_a_at) / Fold change /veh C10orf10 (11716521_a_at) / RFU C5orf56 (11738089_at) / Fold change /veh C5orf56 (11738089_at) / RFU CYB561 (11721691_x_at) / Fold change /veh CYB561 (11721691_x_at) / RFU ANKRD19P (11752326_a_at) / Fold change /veh ANKRD19P (11752326_a_at) / RFU OR2T12 /// OR2T33 /// OR2T8 (11738714_s_at) / Fold change /veh OR2T12 /// OR2T33 /// OR2T8 (11738714_s_at) / RFU VCAN (11748164_a_at) / Fold change /veh VCAN (11748164_a_at) / RFU JSRP1 (11732532_at) / Fold change /veh JSRP1 (11732532_at) / RFU KRTAP10-11 (11738290_x_at) / Fold change /veh KRTAP10-11 (11738290_x_at) / RFU MYO3A (11730013_a_at) / Fold change /veh MYO3A (11730013_a_at) / RFU EBF3 (11725865_a_at) / Fold change /veh EBF3 (11725865_a_at) / RFU CAMK2N1 (11719241_x_at) / Fold change /veh CAMK2N1 (11719241_x_at) / RFU C5orf56 (11738088_a_at) / Fold change /veh C5orf56 (11738088_a_at) / RFU OLFML3 (11715873_a_at) / Fold change /veh OLFML3 (11715873_a_at) / RFU LOC100653217 /// NTM (11731650_a_at) / Fold change /veh LOC100653217 /// NTM (11731650_a_at) / RFU MAPK11 (11762145_a_at) / Fold change /veh MAPK11 (11762145_a_at) / RFU FIZ1 (11724087_x_at) / Fold change /veh FIZ1 (11724087_x_at) / RFU OASL (11726364_x_at) / Fold change /veh OASL (11726364_x_at) / RFU SOX15 (11748057_x_at) / Fold change /veh SOX15 (11748057_x_at) / RFU CD79A (11719716_a_at) / Fold change /veh CD79A (11719716_a_at) / RFU HIST1H1D (11736915_at) / Fold change /veh HIST1H1D (11736915_at) / RFU CASKIN2 (11723855_a_at) / Fold change /veh CASKIN2 (11723855_a_at) / RFU LOC730098 (11760151_x_at) / Fold change /veh LOC730098 (11760151_x_at) / RFU OR4N2 (11742367_at) / Fold change /veh OR4N2 (11742367_at) / RFU PRRT2 (11749266_a_at) / Fold change /veh PRRT2 (11749266_a_at) / RFU SNX32 (11753110_a_at) / Fold change /veh SNX32 (11753110_a_at) / RFU CDHR5 (11726645_a_at) / Fold change /veh CDHR5 (11726645_a_at) / RFU RCAN1 (11760418_a_at) / Fold change /veh RCAN1 (11760418_a_at) / RFU FAM167A (11723789_a_at) / Fold change /veh FAM167A (11723789_a_at) / RFU FAM26E (11764081_at) / Fold change /veh FAM26E (11764081_at) / RFU ISYNA1 (11749810_s_at) / Fold change /veh ISYNA1 (11749810_s_at) / RFU ACY1 (11761880_at) / Fold change /veh ACY1 (11761880_at) / RFU 11764098_at / Fold change /veh 11764098_at / RFU SAMD14 (11745864_x_at) / Fold change /veh SAMD14 (11745864_x_at) / RFU NPB (11741838_a_at) / Fold change /veh NPB (11741838_a_at) / RFU TMPRSS6 (11731388_a_at) / Fold change /veh TMPRSS6 (11731388_a_at) / RFU KRTAP10-2 (11738614_at) / Fold change /veh KRTAP10-2 (11738614_at) / RFU ARHGAP8 /// PRR5-ARHGAP8 (11727945_x_at) / Fold change /veh ARHGAP8 /// PRR5-ARHGAP8 (11727945_x_at) / RFU KRTAP5-7 /// NADSYN1 (11734609_at) / Fold change /veh KRTAP5-7 /// NADSYN1 (11734609_at) / RFU RASL12 (11751679_a_at) / Fold change /veh RASL12 (11751679_a_at) / RFU CDKN2B (11736163_a_at) / Fold change /veh CDKN2B (11736163_a_at) / RFU PRF1 (11729649_at) / Fold change /veh PRF1 (11729649_at) / RFU, ZNF638 /// ZNF638-IT1 / Fold change vs veh, ZNF638 /// ZNF638-IT1 / RFU, PANK3 / Fold change vs veh, PANK3 / RFU, SH3YL1 / Fold change vs veh, SH3YL1 / RFU, ZEB2 / Fold change vs veh, ZEB2 / RFU, NRIP1 / Fold change vs veh, NRIP1 / RFU, PTTG1IP / Fold change vs veh, PTTG1IP / RFU, CAPN2 / Fold change vs veh, CAPN2 / RFU, MED14 / Fold change vs veh, MED14 / RFU, SNORA58 / Fold change vs veh, SNORA58 / RFU, C1orf63 / Fold change vs veh, C1orf63 / RFU, LRRFIP1 / Fold change vs veh, LRRFIP1 / RFU, NDUFAF7 / Fold change vs veh, NDUFAF7 / RFU, SLC12A2 / Fold change vs veh, SLC12A2 / RFU, IBTK / Fold change vs veh, IBTK / RFU, ESF1 / Fold change vs veh, ESF1 / Fold change vs veh, TMEM50B / RFU, TAOK1 / Fold change vs veh, TAOK1 / RFU, ACBD3 / Fold change vs veh, ACBD3 / RFU, TMA16 / Fold change vs veh, TMA16 / RFU, RWDD3 / Fold change vs veh, RWDD3 / RFU, BCAT1 / Fold change vs veh, BCAT1 / RFU, EDEM3 / Fold change vs veh, EDEM3 / RFU, TMEM33 / Fold change vs veh, TMEM33 / RFU, WDR75 / Fold change vs veh, WDR75 / RFU, AHCTF1 / Fold change vs veh, AHCTF1 / RFU, TFRC / Fold change vs veh, TFRC / RFU, ZDHHC17 / Fold change vs veh, ZDHHC17 / RFU, NOM1 / Fold change vs veh, NOM1 / RFU, ARL8B / Fold change vs veh, ARL8B / RFU, ZBTB11 / Fold change vs veh, ZBTB11 / RFU, TAMM41 / Fold change vs veh, TAMM41 / RFU, KIAA1704 /// LOC100996395 / Fold change vs veh, KIAA1704 /// LOC100996395 / RFU, ING1 / Fold change vs veh, ING1 / RFU, TRMT61B / Fold change vs veh, TRMT61B / RFU, FUBP3 / Fold change vs veh, FUBP3 / RFU, TP53 / Fold change vs veh, TP53 / RFU, TNKS2 / Fold change vs veh, TNKS2 / RFU, ZFP14 / Fold change vs veh, ZFP14 / RFU, ACTR2 / Fold change vs veh, ACTR2 / RFU, PPP3R1 / Fold change vs veh, PPP3R1 / RFU, PIK3R1 / Fold change vs veh, PIK3R1 / RFU, HNRNPA1 / Fold change vs veh, HNRNPA1 / RFU, RNF170 / Fold change vs veh, RNF170 / RFU, ZNF28 / Fold change vs veh, ZNF28 / RFU, RNGTT / Fold change vs veh, RNGTT / RFU, OGT / Fold change vs veh, OGT / RFU, BRD1 / Fold change vs veh, BRD1 / RFU, MARS / Fold change vs veh, MARS / RFU, ZNF655 / Fold change vs veh, ZNF655 / RFU, FAHD1 / Fold change vs veh, FAHD1 / RFU, BDP1 / Fold change vs veh, BDP1 / RFU, LRRCC1 / Fold change vs veh, LRRCC1 / RFU, ARID1A / Fold change vs veh, ARID1A / RFU, ZNF146 / Fold change vs veh, ZNF146 / RFU, ZNF330 / Fold change vs veh, ZNF330 / RFU, GPN3 / Fold change vs veh, GPN3 / RFU, C9orf123 / Fold change vs veh, C9orf123 / RFU, N4BP2L2 / Fold change vs veh, N4BP2L2 / RFU, ARFIP1 / Fold change vs veh, ARFIP1 / RFU, FAM179B / Fold change vs veh, FAM179B / RFU, BCL10 / Fold change vs veh, BCL10 / RFU, UHRF1BP1L / Fold change vs veh, UHRF1BP1L / RFU, BET1 / Fold change vs veh, BET1 / RFU, CNOT2 / Fold change vs veh, CNOT2 / RFU, ZNF268 / Fold change vs veh, ZNF268 / Fold change vs veh, ZNF507 / RFU, DGCR2 / Fold change vs veh, DGCR2 / RFU, WDSUB1 / Fold change vs veh, WDSUB1 / Fold change vs veh, HSP90B1 /// MIR3652 / RFU, ADSS / Fold change vs veh, ADSS / RFU, GK / Fold change vs veh, GK / RFU, ZNF148 / Fold change vs veh, ZNF148 / RFU, TAF9 / Fold change vs veh, TAF9 / RFU, SLC1A5 / Fold change vs veh, SLC1A5 / RFU, SLMO2 / Fold change vs veh, SLMO2 / RFU, ABCC4 / Fold change vs veh, ABCC4 / RFU, LOC101060439 /// RAP1B / Fold change vs veh, LOC101060439 /// RAP1B / RFU, RFX7 / Fold change vs veh, RFX7 / RFU, GTPBP10 / Fold change vs veh, GTPBP10 / RFU, CNEP1R1 / Fold change vs veh, CNEP1R1 / RFU, BIVM-ERCC5 /// ERCC5 / Fold change vs veh, BIVM-ERCC5 /// ERCC5 / RFU, ILF3 / Fold change vs veh, ILF3 / RFU 11762660_at / Fold change /veh 11762660_at / RFU VCAN (11757783_s_at) / Fold change /veh VCAN (11757783_s_at) / RFU DDX43 (11728927_at) / Fold change /veh DDX43 (11728927_at) / RFU KRT8 (11758188_x_at) / Fold change /veh KRT8 (11758188_x_at) / RFU NKD1 (11759106_at) / Fold change /veh NKD1 (11759106_at) / RFU SRD5A1 (11742802_a_at) / Fold change /veh SRD5A1 (11742802_a_at) / RFU TPSAB1 /// TPSB2 (11721975_s_at) / Fold change /veh TPSAB1 /// TPSB2 (11721975_s_at) / RFU GSTM3 (11746129_a_at) / Fold change /veh GSTM3 (11746129_a_at) / RFU IL23R (11737362_x_at) / Fold change /veh IL23R (11737362_x_at) / RFU TMEM51 (11727254_a_at) / Fold change /veh TMEM51 (11727254_a_at) / RFU PIWIL2 (11732686_x_at) / Fold change /veh PIWIL2 (11732686_x_at) / RFU ORM1 (11744905_x_at) / Fold change /veh ORM1 (11744905_x_at) / RFU CCDC152 (11743942_at) / Fold change /veh CCDC152 (11743942_at) / RFU ECM1 (11717891_a_at) / Fold change /veh ECM1 (11717891_a_at) / RFU IL23R (11748794_a_at) / Fold change /veh IL23R (11748794_a_at) / RFU TNFAIP8L3 (11732012_x_at) / Fold change /veh TNFAIP8L3 (11732012_x_at) / RFU MBOAT4 (11741988_at) / Fold change /veh MBOAT4 (11741988_at) / RFU 11764193_at / Fold change /veh 11764193_at / RFU TMEM53 (11763286_at) / Fold change /veh TMEM53 (11763286_at) / RFU MAGEB2 (11727129_at) / Fold change /veh MAGEB2 (11727129_at) / RFU TMEM200A (11744735_a_at) / Fold change /veh TMEM200A (11744735_a_at) / RFU CCDC152 (11751479_a_at) / Fold change /veh CCDC152 (11751479_a_at) / RFU FAM211A (11726209_a_at) / Fold change /veh FAM211A (11726209_a_at) / RFU RGS16 (11746705_a_at) / Fold change /veh RGS16 (11746705_a_at) / RFU VCAN (11755009_s_at) / Fold change /veh VCAN (11755009_s_at) / RFU RHOB (11743442_s_at) / Fold change /veh RHOB (11743442_s_at) / RFU RGS16 (11720943_a_at) / Fold change /veh RGS16 (11720943_a_at) / RFU RGS16 (11720944_at) / Fold change /veh RGS16 (11720944_at) / RFU, VPS4B / Fold change vs veh, VPS4B / RFU, CREB1 / Fold change vs veh, CREB1 / RFU, DNAJC13 / Fold change vs veh, DNAJC13 / RFU, GNAQ / Fold change vs veh, GNAQ / RFU, CDK5R1 / Fold change vs veh, CDK5R1 / RFU, ZRANB3 / Fold change vs veh, ZRANB3 / RFU, CUL4A / Fold change vs veh, CUL4A / RFU, CCNY / Fold change vs veh, CCNY / RFU, UFL1 / Fold change vs veh, UFL1 / RFU, COG3 / Fold change vs veh, COG3 / RFU, DIAPH2 / Fold change vs veh, DIAPH2 / RFU, SKA2 / Fold change vs veh, SKA2 / RFU, AFF3 / Fold change vs veh, AFF3 / RFU, LMF1 / Fold change vs veh, LMF1 / RFU, IPO11 / Fold change vs veh, IPO11 / RFU, DFFB / Fold change vs veh, DFFB / RFU, FOXP1 / Fold change vs veh, FOXP1 / RFU, CARD8 / Fold change vs veh, CARD8 / RFU, STRN3 / Fold change vs veh, STRN3 / RFU, ADK / Fold change vs veh, ADK / RFU, RASSF2 / Fold change vs veh, RASSF2 / RFU, WIPF1 / Fold change vs veh, WIPF1 / RFU, LARP1B / Fold change vs veh, LARP1B / RFU, RASA1 / Fold change vs veh, RASA1 / RFU, RB1 / Fold change vs veh, RB1 / RFU, PPFIA1 / Fold change vs veh, PPFIA1 / RFU, MAT2A / Fold change vs veh, MAT2A / RFU, CCT5 / Fold change vs veh, CCT5 / RFU, WDR92 / Fold change vs veh, WDR92 / RFU, CUX1 / Fold change vs veh, CUX1 / RFU, TTC7A / Fold change vs veh, TTC7A / RFU, TMEM135 / Fold change vs veh, TMEM135 / RFU, DEPTOR / Fold change vs veh, DEPTOR / RFU, CPM / Fold change vs veh, CPM / RFU, DNAJB6 / Fold change vs veh, DNAJB6 / RFU, CACNA2D3 / Fold change vs veh, CACNA2D3 / RFU, DTX4 / Fold change vs veh, DTX4 / RFU, TFCP2 / Fold change vs veh, TFCP2 / RFU, GMCL1 /// GMCL1P1 / Fold change vs veh, GMCL1 /// GMCL1P1 / RFU, AEBP2 / Fold change vs veh, AEBP2 / RFU, SNHG1 /// SNORD22 /// SNORD25 /// SNORD26 /// SNORD27 /// SNORD28 /// SNORD29 /// SNORD31 / Fold change vs veh, SNHG1 /// SNORD22 /// SNORD25 /// SNORD26 /// SNORD27 /// SNORD28 /// SNORD29 /// SNORD31 / Fold change (Aza/veh), C12orf56 (ProbeSet 11735607_a_at) / Fold change (ACY-1035/veh), C12orf56 (ProbeSet 11735607_a_at) / Fold change (Aza/veh), FGFR1OP (ProbeSet 11751329_s_at) / Fold change (ACY-1035/veh), FGFR1OP (ProbeSet 11751329_s_at) / Fold change (Aza/veh), VPS36 (ProbeSet 11739960_a_at) / Fold change (ACY-1035/veh), VPS36 (ProbeSet 11739960_a_at) / RFU SYPL1 (11715823_x_at) / Fold change /veh SYPL1 (11715823_x_at) / RFU IGFBP7 (11715501_s_at) / Fold change /veh IGFBP7 (11715501_s_at) / RFU REEP3 (11722064_at) / Fold change /veh REEP3 (11722064_at) / RFU IGLL1 (11728026_x_at) / Fold change /veh IGLL1 (11728026_x_at): dose or concentration left out as unconfirmed
# Conditions: ProbeSet 11745428_a_at; LIST D
structure (smiles),measurement,value
Nc1ccc(-c2cccs2)cc1NC(=O)c1ccc2c(c1)cc(C1CC1)n2CCN1CCOCC1 [ACY-1035],"Fold change vs veh, DFFB",0.87

# — publication PMC5218480 (PLoS ONE, 2017)
